We go through 3 compounds from paper PMC5399635 (The Journal of Pharmacology and Experimental Therapeutics, 2017).

A word on the Papp A→B: it is the apparent permeability from the apical to the basolateral side of a cell layer. Higher therefore signals ready permeation. By Papp B→A is commonly meant the apparent permeability from the basolateral to the apical side of a cell layer. For orientation: ED50 means the dose that gives a 50% effect, or the effect in half of the subjects. For orientation: Ki means a measure of affinity in units of concentration, obtained from inhibition or displacement. The Kb is the affinity of an antagonist, worked out from how it opposes an agonist. The pA2 is a measure of antagonist potency on a negative log scale.

For data set [1] the following is noted: rat, in vivo, 30 s, 20 μM, pH 7.4.
Data set [2] is described as follows: In situ rat brain perfusion model. The following applies: 30 s perfusion, test compound 20 μM, atenolol 50 μM, antipyrine 5 μM, mean ± S.D.
The nature of the next data set: in vitro. The settings on record: human.
Data set [3] concerns morphine-induced antinociception. The data set is described as follows: Hot plate model of nociception, antagonism of morphine.
In data set [4] the test system is morphine-induced inhibition of gastrointestinal transit. Put plainly: Gastrointestinal transit model (charcoal meal), antagonism of morphine.
Data set [5] deals with T1, human µ-opioid receptor (Homo sapiens, UniProt P35372). The data set is described as follows: Radioligand binding, µ-opioid receptor ([3H]diprenorphine). On the set-up: expressed in transfected cells; b18 says CHO cells. The following applies: read-out: geometric mean Ki.
T1 sequence (P35372 whole entry): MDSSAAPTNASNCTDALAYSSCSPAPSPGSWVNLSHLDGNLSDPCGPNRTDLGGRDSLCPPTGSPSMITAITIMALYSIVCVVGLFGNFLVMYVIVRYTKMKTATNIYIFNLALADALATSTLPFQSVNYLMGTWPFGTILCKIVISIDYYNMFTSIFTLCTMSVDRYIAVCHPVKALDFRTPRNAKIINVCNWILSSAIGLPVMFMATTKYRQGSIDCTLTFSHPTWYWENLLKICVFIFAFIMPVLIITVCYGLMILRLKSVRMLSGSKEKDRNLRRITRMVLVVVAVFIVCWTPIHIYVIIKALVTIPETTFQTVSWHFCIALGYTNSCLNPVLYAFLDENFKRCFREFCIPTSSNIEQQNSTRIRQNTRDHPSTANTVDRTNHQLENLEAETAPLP
Another data set concerns the target T2, rat κ-opioid receptor (Rattus norvegicus, UniProt P34975).
T2 construct: expressed in transfected cells; host or cells: CHO cells
The data set is described as follows: Radioligand binding, κ-opioid receptor ([3H]U69593). The following applies: cloned rat κ-opioid receptors; read-out: geometric mean Ki. The procedure: Competitive inhibition studies were performed on cloned opioid receptors expressed in membranes of Chinese hamster ovary (CHO) cells and conducted in triplicate (n = 3 independent experiments).
Radioligand binding assays were performed to evaluate the ability of these agents to inhibit specific radioligand binding to cloned opioid receptor subtypes. Half-maximal inhibitory concentration (IC50), equilibrium dissociation constant for the inhibitor (Ki), and negative log of the equilibrium dissociation constant for the inhibitor (pKi) values were obtained. The receptor binding methods used for µ ([Zhang et al., 1998])-, δ ([Simonin et al., 1994])-, and κ ([Meng et al., 1993])-opioid receptors have been described previously, with the exception that 100 mM NaCl was added to the incubation buffer in the µ-opioid receptor binding assay. All assays were conducted in 200-µl volume. All assay incubations were terminated by filtration, and bound radioligand was quantitated by liquid scintillation spectrometry. The IC50 values were determined by nonlinear regression analysis of the competition curves generated with the mean of duplicate values using Hill equation curve fitting. The inhibition constants (Ki) were calculated using the Cheng-Prusoff equation. The pKi results from three independent experiments were analyzed for significant differences by one-way analysis of variance (ANOVA) followed by Bonferroni multiple comparison test.

For data set [6], the target named is T1, human µ-opioid receptor. The data set is described as follows: [35S]GTPγS binding, Schild-type antagonism of morphine (CHO-K1 membranes).

Counter-ions that a name gives are not always drawn. Like-named read-outs stand apart in the source and are kept apart here. Where only a bound is given, the exact number is not on record here.

T2 sequence (P34975 whole entry): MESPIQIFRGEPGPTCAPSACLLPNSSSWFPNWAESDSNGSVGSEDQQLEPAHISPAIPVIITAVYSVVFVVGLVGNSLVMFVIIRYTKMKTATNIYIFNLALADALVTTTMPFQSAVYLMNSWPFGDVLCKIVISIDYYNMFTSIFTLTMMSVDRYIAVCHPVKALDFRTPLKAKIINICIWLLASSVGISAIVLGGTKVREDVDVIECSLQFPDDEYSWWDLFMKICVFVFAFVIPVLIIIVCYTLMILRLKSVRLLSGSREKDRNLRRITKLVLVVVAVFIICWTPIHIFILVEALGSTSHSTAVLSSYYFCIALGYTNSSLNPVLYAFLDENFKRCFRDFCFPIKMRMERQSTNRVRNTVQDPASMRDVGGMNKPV

As to `Cc1cc(=O)n(-c2ccccc2)n1C` [Antipyrine, antipyrine], the “Brain Uptake” value in data set [1] came to 28.2 ± 14.3 pmol/g brain/s.

On to `C=CCN1CC[C@]23c4c5ccc(O)c4O[C@H]2C(=O)CC[C@@]3(O)[C@H]1C5` [Naloxone, naloxone hydrochloride, reference compound], for which the “Brain Uptake” value in data set [2] was 60.2 ± 13.7 pmol/g brain/s. The Papp A→B at 2 h, 10 μM in “in vitro” (Caco-2, pH 7.4, Papp A→B, no P-gp inhibitor, mean of 3 experiments) was determined as 27.3 ×10⁻⁶ cm/s; in the data set “in vitro” (Caco-2, pH 7.4, with cyclosporin A, Papp A→B, Cyclosporin A) it was 28.4 ×10⁻⁶ cm/s; in “in vitro” (Caco-2, pH 7.4, with elacridar, 0.5 μM, Papp A→B, Elacridar), 24.8 ×10⁻⁶ cm/s; in “in vitro” (Caco-2, pH 7.4, with verapamil, 100 μM, Papp A→B, Verapamil) it was 24.5 ×10⁻⁶ cm/s. Further, the Papp B→A at 2 h, 10 μM in the data set “in vitro” (Caco-2, pH 7.4, Papp B→A, no P-gp inhibitor, mean of 3 experiments) was found to be 25 ×10⁻⁶ cm/s; in the data set “in vitro” (Caco-2, pH 7.4, with cyclosporin A, Papp B→A, Cyclosporin A), 23.7 ×10⁻⁶ cm/s; in “in vitro” (Caco-2, pH 7.4, with elacridar, 0.5 μM, Papp B→A, Elacridar) it was 27.3 ×10⁻⁶ cm/s; in the data set “in vitro” (Caco-2, pH 7.4, with verapamil, 100 μM, Papp B→A, Verapamil) it was 24.9 ×10⁻⁶ cm/s. Also, the ED50 came to 1.14 mg/kg in data set [3] (Rattus norvegicus, po, read-out: ED50, antagonism of morphine analgesia) and 0.69 mg/kg in data set [4] (Rattus norvegicus, read-out: ED50, antagonism of morphine in GI transit). Moreover, the “oral dose that completely reversed the analgesic effect of morphine” value in data set [3] (hot plate assay, rat) was at least 10 mg/kg. Further, in data set [4] (GI transit assay, rat), the “oral dose that completely reversed the effect of morphine” value was at least 10 mg/kg.

Turning to `C[N@+]1(CC2CC2)CC[C@]23c4c5ccc(O)c4O[C@H]2C(=O)CC[C@@]3(O)[C@H]1C5` [Methylnaltrexone, Methylnaltrexone bromide], the figures for the Ki at human µ-opioid receptor [5] and on rat κ-opioid receptor were 22.1 nM and 10.9 nM, respectively. On human µ-opioid receptor [6], this compound came in with a Kb of 37 nM. Further, at human µ-opioid receptor [6] (versus morphine, 3 independent experiments), the pA2 is recorded as 7.43 ± 0.02. The Schild slope entry on human µ-opioid receptor [6] (versus morphine, pooled 3 experiments) is “–0.982”.
